Test results as given in paper PMC8537445, “D-Peptide-Based Probe for CXCR4-Targeted Molecular Imaging and Radionuclide Therapy” (Pharmaceutics, 2021).
Where two headings read alike, the source gives them in different places. Positions of bridges follow the written chain, without caps; N, C: chain ends. Non-standard residues stand in square brackets, D forms with d. Residues, ends and D or L forms follow the SMILES beside them. Chains are numbered I, II in the order given. *: point of attachment. NOTA = O=C(O)CN1CCN(CC(=O)O)CCN(CC(=O)*)CC1

Assays:
[1] = Ex vivo biodistribution in U87.hCXCR4 tumor-bearing mice; design: species or system mouse; settings: female, SCID (CB17.Cg-Prkdc<scid>Lyst<bg-J>/Crl), mouse, iv, total radioactivity, 75 min p.i., mean ± SD; for tissue to tissue ratio at 1.25 h: SUV ratio; for SUV at 1.25 h: tumor
[2] = tested on: U87.hCXCR4 tumor-bearing mice; assay: as above; design: species or system mouse; settings: 75 min p.i., mean ± SD
[3] = Ex vivo biodistribution in wild-type mice; settings: mouse, total radioactivity, 75 min p.i., ex vivo gamma counting, mean ± SD
Procedure: The in vivo pharmacokinetics of the selected radioligands were first evaluated in wild-type mice by performing a whole-body biodistribution study. […] Blood and major organs were collected in tared tubes and weighed. Quantification of radioactivity in blood, organs, and other body parts was performed using an automated gamma counter equipped with a 3-inch NaI(Tl) well crystal coupled to a multichannel analyzer, mounted in a sample changer (2480 Wizard^2, Perkin Elmer, Waltham, MA, USA). Counts were corrected for background radiation, physical decay and counter dead time. Results are presented as standardized uptake values (SUV; tissue activity concentration (MBq/g)/[injected dose (MBq)/body weight (g)]).

[4] = co-injected AMD3100 5 mg/kg (157 nmol), n = 4
[5] = co-injected DV1-k-(DV3) 7 nmol, n = 3
[6] = co-injected DV1-k-(DV3) 14 nmol, n = 4
[7] = co-injected DV1-k-(DV3) 24 nmol, n = 4
[8] = SUV ratio, co-injected AMD3100 5 mg/kg (157 nmol), n = 4
[9] = SUV ratio, co-injected DV1-k-(DV3) 7 nmol, n = 3
[10] = SUV ratio, co-injected DV1-k-(DV3) 24 nmol, n = 4

CC(C)C[C@@H](N)C(=O)NCC(=O)N[C@H](C)C(=O)N[C@H](CO)C(=O)N[C@H](Cc1c[nH]c2ccccc12)C(=O)N[C@H](Cc1c[nH]cn1)C(=O)N[C@H](CCCNC(=N)N)C(=O)N1CCC[C@@H]1C(=O)N[C@H](CC(=O)O)C(=O)N[C@H](CCCCNC(=O)CN1CCN(CC(=O)O)CCN(CC(=O)O)CC1)C(=O)NCCCC[C@@H](NC(=O)[C@H]1CCCN1C(=O)[C@@H](CC(C)C)NC(=O)[C@H]1CCCN1C(=O)[C@@H](CCCNC(=N)N)NC(=O)[C@@H](CCCCN)NC(=O)[C@@H](CCC(N)=O)NC(=O)[C@@H](Cc1ccc(O)cc1)NC(=O)CNC(=O)[C@@H](CC(C)C)NC(=O)[C@@H](CS)NC(=O)[C@@H](CS)NC(=O)[C@@H](CCCCN)NC(=O)[C@@H](CC(=O)O)NC(=O)[C@H]1CCCN1C(=O)[C@@H](CCCNC(=N)N)NC(=O)[C@@H](Cc1c[nH]cn1)NC(=O)[C@@H](Cc1c[nH]c2ccccc12)NC(=O)[C@@H](CO)NC(=O)[C@@H](C)NC(=O)CNC(=O)[C@H](N)CC(C)C)C(=O)O [[^18F]AlF-NOTA-DV1-k-(DV3)] (I: H-[dL]G[dA][dS][dW][dH][dR][dP][dD][dK][dC][dC][dL]G[dY][dQ][dK][dR][dP][dL][dP][dK]-OH / II: H-[dL]G[dA][dS][dW][dH][dR][dP][dD][dK](NOTA); amide I:22-II:C)
tissue to tissue ratio at 1.25 h ([1]; tumor / muscle, tracer alone (0 nmol), n = 4, read-out: tumor-to-muscle ratio (t/muscle)): 12.4 ± 2.9
tissue to tissue ratio at 1.25 h ([1]; tumor / muscle, with AMD3100 5 mg/kg (157 nmol), co-injected, co-injected AMD3100 5 mg/kg (157 nmol), n = 4, read-out: tumor-to-muscle ratio (t/muscle)): 4.2 ± 1.1
tissue to tissue ratio at 1.25 h ([1]; tumor / muscle, with unlabelled DV1-k-(DV3) 7 nmol, co-injected, co-injected DV1-k-(DV3) 7 nmol, n = 3, read-out: tumor-to-muscle ratio (t/muscle)): 5.4 ± 2.2
tissue to tissue ratio at 1.25 h ([1]; tumor / muscle, with unlabelled DV1-k-(DV3) 14 nmol, co-injected, co-injected DV1-k-(DV3) 14 nmol, n = 4, read-out: tumor-to-muscle ratio (t/muscle)): 4.8 ± 2.1
tissue to tissue ratio at 1.25 h ([1]; tumor / muscle, with unlabelled DV1-k-(DV3) 24 nmol, co-injected, co-injected DV1-k-(DV3) 24 nmol, n = 4, read-out: tumor-to-muscle ratio (t/muscle)): 3 ± 0.4
SUV at 1.25 h ([1]; tracer alone (0 nmol), n = 4, read-out: tumor uptake): 0.6 ± 0.2 SUV
SUV at 1.25 h ([1]; with AMD3100 5 mg/kg (157 nmol), co-injected, co-injected AMD3100 5 mg/kg (157 nmol), n = 4, read-out: tumor uptake): 0.4 ± 0.2 SUV
SUV at 1.25 h ([1]; with unlabelled DV1-k-(DV3) 7 nmol, co-injected, co-injected DV1-k-(DV3) 7 nmol, n = 3, read-out: tumor uptake): 0.7 ± 0.1 SUV
SUV at 1.25 h ([1]; with unlabelled DV1-k-(DV3) 14 nmol, co-injected, co-injected DV1-k-(DV3) 14 nmol, n = 4, read-out: tumor uptake): 0.9 ± 0.3 SUV
SUV at 1.25 h ([1]; with unlabelled DV1-k-(DV3) 24 nmol, co-injected, co-injected DV1-k-(DV3) 24 nmol, n = 4, read-out: tumor uptake): 0.6 ± 0.2 SUV
tissue to tissue ratio at 1.25 h ([1]; tumor/blood, co-injected DV1-k-(DV3) 7 nmol, n = 3, read-out: tumor-to-blood ratio (t/blood)): 2.2 ± 0.9
tissue to tissue ratio at 1.25 h ([1]; tumor/blood, co-injected DV1-k-(DV3) 14 nmol, n = 4, read-out: tumor-to-blood ratio (t/blood)): 2 ± 0.9
tissue to tissue ratio at 1.25 h ([1]; tumor/blood, co-injected DV1-k-(DV3) 24 nmol, n = 4, read-out: tumor-to-blood ratio (t/blood)): 1.8 ± 0.3
tissue to tissue ratio at 1.25 h ([1]; tumor/bone, co-injected AMD3100 5 mg/kg (157 nmol), n = 4, read-out: tumor-to-bone ratio (t/bone)): 2.6 ± 0.7
tissue to tissue ratio at 1.25 h ([1]; tumor/bone, co-injected DV1-k-(DV3) 7 nmol, n = 3, read-out: tumor-to-bone ratio (t/bone)): 2.9 ± 0.3
tissue to tissue ratio at 1.25 h ([1]; tumor/bone, co-injected DV1-k-(DV3) 14 nmol, n = 4, read-out: tumor-to-bone ratio (t/bone)): 3.2 ± 0.4
tissue to tissue ratio at 1.25 h ([1]; tumor/bone, co-injected DV1-k-(DV3) 24 nmol, n = 4, read-out: tumor-to-bone ratio (t/bone)): 3.3 ± 0.5
tissue to tissue ratio at 1.25 h ([1]; tumor/bone, tracer alone (0 nmol), n = 4, read-out: tumor-to-bone ratio (t/bone)): 1.4 ± 0.5
tissue to tissue ratio at 1.25 h ([1]; tumor/liver, co-injected AMD3100 5 mg/kg (157 nmol), n = 4, read-out: tumor-to-liver ratio (t/liver)): 0.5 ± 0.2
tissue to tissue ratio at 1.25 h ([1]; tumor/liver, co-injected DV1-k-(DV3) 7 nmol, n = 3, read-out: tumor-to-liver ratio (t/liver)): 0.6 ± 0.1
tissue to tissue ratio at 1.25 h ([1]; tumor/liver, co-injected DV1-k-(DV3) 14 nmol, n = 4, read-out: tumor-to-liver ratio (t/liver)): 0.8 ± 0.2
tissue to tissue ratio at 1.25 h ([1]; tumor/spleen, co-injected AMD3100 5 mg/kg (157 nmol), n = 4, read-out: tumor-to-spleen ratio (t/spleen)): 0.7 ± 0.2
tissue to tissue ratio at 1.25 h ([1]; tumor/spleen, co-injected DV1-k-(DV3) 7 nmol, n = 3, read-out: tumor-to-spleen ratio (t/spleen)): 1.4 ± 0.1
tissue to tissue ratio at 1.25 h ([1]; tumor/spleen, co-injected DV1-k-(DV3) 14 nmol, n = 4, read-out: tumor-to-spleen ratio (t/spleen)): 1.4 ± 0.1
tissue to tissue ratio at 1.25 h ([1]; tumor/spleen, co-injected DV1-k-(DV3) 24 nmol, n = 4, read-out: tumor-to-spleen ratio (t/spleen)): 1.6 ± 0.3
tissue to tissue ratio at 1.25 h ([1]; tumor/spleen, tracer alone (0 nmol), n = 4, read-out: tumor-to-spleen ratio (t/spleen)): 0.3 ± 0.1
bone uptake [2, 4]: 0.1 ± 0.04 SUV
spleen uptake [2, 4]: 0.5 ± 0.1 SUV
bone uptake ([2]; co-injected AMD3100 5 mg/kg (157 nmol), n = 4, listed as [18F]AlF-NOTA-DV1-k-(DV3)): 0.1 ± 0.04 SUV
bone uptake [2, 5]: 0.2 ± 0.04 SUV
liver uptake [2, 5]: 1.2 ± 0.1 SUV
bone uptake [2, 6]: 0.3 ± 0.1 SUV
liver uptake [2, 6]: 1.2 ± 0.4 SUV
bone uptake [2, 7]: 0.2 ± 0.04 SUV
liver uptake [2, 7]: 0.7 ± 0.1 SUV
tumor-to-blood ratio (t/blood) [2, 8]: 1.7 ± 0.5
tumor-to-liver ratio (t/liver) [2, 8]: 0.5 ± 0.2
tumor-to-liver ratio (t/liver) [2, 9]: 0.6 ± 0.1
tumor-to-muscle ratio (t/muscle) [2, 9]: 5.4 ± 2.2
tumor-to-muscle ratio (t/muscle) ([2]; SUV ratio, co-injected DV1-k-(DV3) 14 nmol, n = 4): 4.8 ± 2.1
tumor-to-liver ratio (t/liver) [2, 10]: 0.9 ± 0.2
tumor-to-muscle ratio (t/muscle) [2, 10]: 3.0 ± 0.4
SUV at 1.25 h ([3]; blood, + AMD3100 5 mg/kg, n: PentixaFor 1, 18F 2, 68Ga 4, 177Lu 3, read-out: blood uptake): 0.5 SUV
SUV at 1.25 h ([3]; blood, tracer alone, n: PentixaFor 3, 18F 5, 68Ga 4, 177Lu 3, read-out: blood uptake): 0.2 ± 0.1 SUV
SUV at 1.25 h ([3]; bone (femur harboring bone marrow), tracer alone, n: PentixaFor 3, 18F 5, 68Ga 4, 177Lu 3, read-out: bone uptake (femur harboring bone marrow)): 0.7 ± 0.4 SUV
SUV at 1.25 h ([3]; brain, + AMD3100 5 mg/kg, n: PentixaFor 1, 18F 2, 68Ga 4, 177Lu 3, read-out: brain uptake): 0.02 SUV
SUV at 1.25 h ([3]; brain, tracer alone, n: PentixaFor 3, 18F 5, 68Ga 4, 177Lu 3, read-out: brain uptake): 0.01 ± 0.003 SUV
SUV at 1.25 h ([3]; heart, + AMD3100 5 mg/kg, n: PentixaFor 1, 18F 2, 68Ga 4, 177Lu 3, read-out: heart uptake): 0.2 SUV
SUV at 1.25 h ([3]; heart, tracer alone, n: PentixaFor 3, 18F 5, 68Ga 4, 177Lu 3, read-out: heart uptake): 0.2 ± 0.1 SUV
SUV at 1.25 h ([3]; kidneys, + AMD3100 5 mg/kg, n: PentixaFor 1, 18F 2, 68Ga 4, 177Lu 3, read-out: kidneys uptake): 35.4 SUV
SUV at 1.25 h ([3]; kidneys, tracer alone, n: PentixaFor 3, 18F 5, 68Ga 4, 177Lu 3, read-out: kidneys uptake): 23.2 ± 3.9 SUV
SUV at 1.25 h ([3]; liver, + AMD3100 5 mg/kg, n: PentixaFor 1, 18F 2, 68Ga 4, 177Lu 3, read-out: liver uptake): 1 SUV
SUV at 1.25 h ([3]; liver, tracer alone, n: PentixaFor 3, 18F 5, 68Ga 4, 177Lu 3, read-out: liver uptake): 7.4 ± 0.5 SUV
SUV at 1.25 h ([3]; lungs, + AMD3100 5 mg/kg, n: PentixaFor 1, 18F 2, 68Ga 4, 177Lu 3, read-out: lungs uptake): 0.8 SUV
SUV at 1.25 h ([3]; lungs, tracer alone, n: PentixaFor 3, 18F 5, 68Ga 4, 177Lu 3, read-out: lungs uptake): 0.8 ± 0.2 SUV
SUV at 1.25 h ([3]; pancreas, + AMD3100 5 mg/kg, n: PentixaFor 1, 18F 2, 68Ga 4, 177Lu 3, read-out: pancreas uptake): 0.1 SUV
SUV at 1.25 h ([3]; pancreas, tracer alone, n: PentixaFor 3, 18F 5, 68Ga 4, 177Lu 3, read-out: pancreas uptake): 0.1 ± 0.02 SUV
SUV at 1.25 h ([3]; spleen, + AMD3100 5 mg/kg, n: PentixaFor 1, 18F 2, 68Ga 4, 177Lu 3, read-out: spleen uptake): 0.9 SUV
SUV at 1.25 h ([3]; spleen, tracer alone, n: PentixaFor 3, 18F 5, 68Ga 4, 177Lu 3, read-out: spleen uptake): 3.2 ± 0.8 SUV
